Earlier results, collected in US20250000872A1, “FORMULATIONS AND DOSING REGIMENS FOR RIP1 KINASE INHIBITORS FOR TREATING AUTOIMMUNE AND INFLAMMATORY DISEASES” (Eli Lilly and Company, priority 2023, published 2025).

Columns and labels:
[1] = tested on: patients with mild-to-moderate active plaque-type psoriasis; conditions: 60 mg orally b.i.d. and 60 mg orally t.i.d.; cited from earlier work
[2] = modified release formulations, fasted state; not maintained with standard or high-fat meal; cited from earlier work
[3] = tested on: patients with moderate to severe RA; conditions: 60 mg orally b.i.d. and t.i.d. for up to 84 days; cited from earlier work
UC = conditions: 60 mg orally t.i.d. for up to 84 days; cited from earlier work

CN1C(=O)[C@@H](NC(=O)c2nnc(Cc3ccccc3)[nH]2)COc2ccccc21 [GSK2982772, 5-Benzyl-N-[(3S)-5-methyl-4-oxo-2,3-dihydro-1,5-benzoxazepin-3-yl]-1H-1,2,4-triazole-3-carboxamide]
clinical improvement over placebo [1]: limited
GSK2982772 released over 12 h [2]: 80%
difference over placebo in disease activity, radiological progression, or inflammatory markers [3]: No significant difference
histological disease activity or clinical efficacy compared with placebo (UC): does not lead to differences
